Source: patent US6140487A (Kabushiki Kaisha Hayashibara Seibutsu Kagaku Kenkyujo, priority 1996, dated 2000)

Test system: 7week-old dd-strain mice
Test: Acute toxicity test, oral administration
Assay type: in vivo
Settings: powdery product rich in the saccharide, maximum dose 50 g/kg mouse by weight
Protocol: Acute toxicity test of the powdery products rich in glucosylsorbose, kojitriose, kojibiosylglucoside, and kojibiosylfructoside in Experiments 8-12 were tested in 7week-old dd-strain mice by administering orally. As a result, no mouse died even when administered with their maximum doses, i.e., 50 g/kg mouse by weight.

| Compound | Acute toxicity: death of mice |
| --- | --- |
| O=C(CO)[C@@H](O)[C@H](O)[C@H](CO)O[C@H]1O[C@H](CO)[C@@H](O)[C@H](O)[C@H]1O [glucosylsorbose, α-D-glucosyl-(1→5)-L-sorbose] | no mouse died |
| OC[C@H]1O[C@@](CO)(O[C@H]2O[C@H](CO)[C@@H](O)[C@H](O)[C@H]2O[C@H]2O[C@H](CO)[C@@H](O)[C@H](O)[C@H]2O)[C@@H](O)[C@@H]1O [kojibiosylfructoside, α-D-glucosyl-(1→2)-α-D-glucosyl-(1→2)-β-D-fructoside] | no mouse died |
| OC[C@H]1O[C@H](O[C@H]2O[C@H](CO)[C@@H](O)[C@H](O)[C@H]2O[C@H]2O[C@H](CO)[C@@H](O)[C@H](O)[C@H]2O)[C@H](O)[C@@H](O)[C@@H]1O [kojibiosylglucoside, α-D-glucosyl-(1→2)-α-D-glucosyl-(1,1)-α-D-glucoside] | no mouse died |
| OC[C@H]1O[C@H](O[C@H]2[C@@H](O[C@H]3C(O)O[C@H](CO)[C@@H](O)[C@@H]3O)O[C@H](CO)[C@@H](O)[C@@H]2O)[C@H](O)[C@@H](O)[C@@H]1O (stereo partly drawn) [kojitriose, α-D-glucosyl-(1→2)-α-D-glucosyl-(1→2)-D-glucose] | no mouse died |

Molecular target: T1, kojibiose phosphorylase (Thermoanaerobacter brockii, UniProt Q8L163)
T1 sequence (Q8L163 1-775): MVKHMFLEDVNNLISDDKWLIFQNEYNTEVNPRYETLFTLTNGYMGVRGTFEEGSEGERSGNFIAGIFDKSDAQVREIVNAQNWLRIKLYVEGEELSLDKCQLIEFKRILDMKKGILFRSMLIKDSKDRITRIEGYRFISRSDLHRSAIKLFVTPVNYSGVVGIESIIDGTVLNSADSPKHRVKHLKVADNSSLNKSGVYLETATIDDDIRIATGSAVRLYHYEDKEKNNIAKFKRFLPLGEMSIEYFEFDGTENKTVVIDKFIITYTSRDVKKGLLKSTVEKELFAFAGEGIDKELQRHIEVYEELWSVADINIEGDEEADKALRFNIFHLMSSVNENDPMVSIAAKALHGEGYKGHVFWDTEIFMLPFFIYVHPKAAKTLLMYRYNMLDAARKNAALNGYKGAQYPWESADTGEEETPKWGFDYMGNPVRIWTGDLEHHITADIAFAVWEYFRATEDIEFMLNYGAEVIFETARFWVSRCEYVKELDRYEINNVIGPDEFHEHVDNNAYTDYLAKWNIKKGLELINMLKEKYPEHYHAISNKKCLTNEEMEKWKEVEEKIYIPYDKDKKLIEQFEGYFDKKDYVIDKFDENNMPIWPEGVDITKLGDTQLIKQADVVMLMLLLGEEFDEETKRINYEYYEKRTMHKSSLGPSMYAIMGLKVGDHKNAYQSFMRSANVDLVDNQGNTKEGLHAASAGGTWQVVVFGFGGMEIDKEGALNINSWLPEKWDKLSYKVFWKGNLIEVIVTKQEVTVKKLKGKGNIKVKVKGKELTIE
Test: Substrate specificity for saccharide-hydrolyzing reaction by kojibiose phosphorylase (TLC)
Settings: summary of Table 1
Excerpt: The saccharide concentration of each reaction solution was 2 w/v %. Pre-reaction solutions and post-reaction mixtures were subjected to thin layer chromatography (hereinafter abbreviated as "TLC") using "[sequence] 60 (20×20 cm)", an aluminum plate for TLC commercialized by Merck & Co., Inc., Rahway, USA. Samples were developed once at ambient temperature on the plate using 1-butanol/pyridine/water (=7:3:1 by volume) as a developing solvent system, and the plate was sprayed with 20 v/v % sulfuric acid/methanol solution, and heated at 110° C. for about 10 min for coloration. Comparing spots of the solutions and mixtures detected on the plates, it was checked whether the enzyme acted on the saccharides.

| Action of kojibiose phosphorylase on the saccharide (substrate specificity, in words) | Compound |
| --- | --- |
| acted on it | OC[C@H]1O[C@H](O[C@H]2C(O)O[C@H](CO)[C@@H](O)[C@@H]2O)[C@H](O)[C@@H](O)[C@@H]1O (stereo partly drawn) [Kojibiose] |

Molecular target: T1, kojibiose phosphorylase
Test: Specificity to acceptor in glucosyl-transferred saccharide-forming reaction by kojibiose phosphorylase (TLC)
Assay type: biochemical, Thermoanaerobium brockii, ATCC 35047
Set-up: made in house; host or cells: Thermoanaerobium brockii, ATCC 35047 (natural producer, not recombinant; cell lysate purified by column chromatography)
Settings: summary of Table 2
Excerpt: The concentrations of the acceptors and the saccharide donors were adjusted to one w/v %. Similarly as in Experiment 5, the pre-reaction solutions and the post reaction mixtures were subjected to TLC, followed by coloring the plates. […] By macroscopically observing the coloration degree of the newly detected spots, the yield of the transferred saccharides was relatively evaluated.

| Transfer of glucosyl group from β-D-glucose-1-phosphoric acid to the acceptor (in words) | Compound |
| --- | --- |
| effectively transferred glucosyl group | OC[C@H]1O[C@H](O[C@H]2C(O)O[C@H](CO)[C@@H](O)[C@@H]2O)[C@H](O)[C@@H](O)[C@@H]1O (stereo partly drawn) [Kojibiose] |
| effectively transferred glucosyl group | OCC1(O)OC[C@H](O)[C@@H](O)[C@@H]1O (stereo partly drawn) [L-Sorbose] |
| effectively transferred glucosyl group | OC[C@H]1O[C@H](O[C@H]2[C@H](O)[C@@H](O)[C@@H](O[C@H]3[C@H](O)[C@@H](O)[C@@H](O[C@H]4[C@H](O)[C@@H](O)[C@@H](O[C@H]5[C@H](O)[C@@H](O)C(O)O[C@@H]5CO)O[C@@H]4CO)O[C@@H]3CO)O[C@@H]2CO)[C@H](O)[C@@H](O)[C@@H]1O (stereo partly drawn) [Maltopentaose] |
| effectively transferred glucosyl group | OC[C@H]1O[C@H](O[C@H]2[C@H](O)[C@@H](O)[C@H](O)O[C@@H]2CO)[C@H](O)[C@@H](O)[C@@H]1O [Maltose] |
| effectively transferred glucosyl group | OC[C@H]1O[C@H](O[C@H]2[C@H](O)[C@@H](O)[C@@H](O[C@H]3[C@H](O)[C@@H](O)[C@@H](O[C@H]4[C@H](O)[C@@H](O)C(O)O[C@@H]4CO)O[C@@H]3CO)O[C@@H]2CO)[C@H](O)[C@@H](O)[C@@H]1O (stereo partly drawn) [Maltotetraose] |
| effectively transferred glucosyl group | OC[C@H]1O[C@H](O[C@H]2[C@H](O)[C@@H](O)[C@@H](O[C@H]3[C@H](O)[C@@H](O)C(O)O[C@@H]3CO)O[C@@H]2CO)[C@H](O)[C@@H](O)[C@@H]1O (stereo partly drawn) [Maltotriose] |
| effectively transferred glucosyl group | OC[C@H]1O[C@@](CO)(O[C@H]2O[C@H](CO)[C@@H](O)[C@H](O)[C@H]2O)[C@@H](O)[C@@H]1O [Sucrose] |
| effectively transferred glucosyl group | OC[C@H]1O[C@H](O[C@H]2O[C@H](CO)[C@@H](O)[C@H](O)[C@H]2O)[C@H](O)[C@@H](O)[C@@H]1O [Trehalose] |

| Compound | Transfer of glucosyl group from β-D-glucose-1-phosphoric acid to the acceptor (in words) |
| --- | --- |
| OC[C@H]1OC(O)[C@H](O)[C@@H](O)[C@@H]1O (stereo partly drawn) [D-Glucose] | effectively transferred glucosyl group |

Same assay, conditions: used in place of β-D-glucose-1-phosphoric acid

| Compound | Formation of glucosyl-transferred saccharide with the substance as saccharide donor |
| --- | --- |
| O=P(O)(O)O[C@H]1O[C@H](CO)[C@@H](O)[C@H](O)[C@H]1O [α-D-glucose-1-phosphoric acid] | No glucosyl-transferred saccharide was formed |
